Values after ≈ are worked out from the molar mass of the structure shown. Active and inactive are the calls of the source. The calls are words filed in the database; no cut-off is given here.
What was measured:
[1] = target: NAD(P)H dehydrogenase [quinone] 1 (Homo sapiens) (UniProt P15559); test: Substrate activity at recombinant human NQO1 expressed in Escherichia coli assessed as reduction rate by measuring umol of NADPH utilized per umol of enzyme at 10 uM preincubated for 3 mins followed by NADPH addition measured at 2 secs interval for 5 mins by UV-Vis spectroscopy
[2] = target: T1, NADPH--cytochrome P450 reductase (Homo sapiens, UniProt P16435); test: Substrate activity at human CPR expressed in baculovirus expression system assessed as reduction rate by measuring umol of NADPH utilized per umol of enzyme at 10 uM preincubated for 3 mins followed by NADPH addition measured at 2 secs interval for 5 mins by UV-Vis spectroscopy; assay type: ADME
T1 sequence (P16435 whole entry): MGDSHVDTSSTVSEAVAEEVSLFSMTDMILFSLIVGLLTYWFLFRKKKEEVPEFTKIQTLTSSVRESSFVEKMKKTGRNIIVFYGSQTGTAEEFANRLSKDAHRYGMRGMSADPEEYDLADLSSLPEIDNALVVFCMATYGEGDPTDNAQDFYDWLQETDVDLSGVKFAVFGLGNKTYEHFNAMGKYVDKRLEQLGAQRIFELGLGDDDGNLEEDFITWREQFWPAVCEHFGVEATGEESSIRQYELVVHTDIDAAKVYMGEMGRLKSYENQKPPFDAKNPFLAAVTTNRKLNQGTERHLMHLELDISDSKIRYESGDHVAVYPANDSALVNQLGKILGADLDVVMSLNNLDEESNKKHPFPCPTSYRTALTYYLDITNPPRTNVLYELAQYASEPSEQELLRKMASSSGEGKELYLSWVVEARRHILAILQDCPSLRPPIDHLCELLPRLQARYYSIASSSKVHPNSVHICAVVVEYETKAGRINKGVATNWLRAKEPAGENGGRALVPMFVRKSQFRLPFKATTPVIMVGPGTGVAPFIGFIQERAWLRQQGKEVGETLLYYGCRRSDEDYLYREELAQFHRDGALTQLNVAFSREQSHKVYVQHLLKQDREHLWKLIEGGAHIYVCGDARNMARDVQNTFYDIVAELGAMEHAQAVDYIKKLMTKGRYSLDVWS

Homo sapiens = species: Homo sapiens; test: Selectivity ratio for substrate activity at recombinant human NQO1 to substrate activity at human CPR
[3] = Lipophilicity, log D of the compound at pH 7.4; assay type: physicochemical; conditions: buffer
[4] = Intrinsic solubility of the compound; assay type: physicochemical; conditions: read-out: Intrinsic_solubility
[5] = Solubility of the compound in diluted HCl buffer at pH 3; assay type: physicochemical
[6] = Effective permeability of the compound at pH 7.4 by PAMPA assay; assay type: ADME; conditions: read-out: Peff
A549/TR = test: Cytotoxicity against human A549/TR cells assessed as cell growth inhibition preincubated for 24 hrs followed by compound washout measured after 72 hrs by MTT assay; assay type: functional, cell-based
[7] = target: NAD(P)H dehydrogenase [quinone] 1 (Homo sapiens) (UniProt P15559); test: Substrate activity at NQO1 in human A549 cells assessed as induction of enzyme-catalyzed ROS production at 10 uM after 1 to 3 hrs by DCFH-DA-based flow cytometry; assay type: cell-based
L02 = test: Induction of intracellular ROS levels in human L02 cells at 10 uM after 1 to 3 hrs by DCFH-DA-based flow cytometry; assay type: cell-based; conditions: l02, 10 µM
[8] = target: NAD(P)H dehydrogenase [quinone] 1 (Homo sapiens) (UniProt P15559); test: Substrate activity at NQO1 in human A549 cells assessed as induction of enzyme-catalyzed lipid peroxidation by measuring MDA equivalents per protein at 10 uM after 24 hrs by TBARS assay; assay type: cell-based
A549 [9] = test: Antitumor activity against human A549 cells xenografted in athymic nude mouse assessed as tumor growth inhibition at 30 mg/kg, iv administered every other day for 3 weeks measured every day during compound dosing relative to control; assay type: functional; conditions: 504 h, read-out: TGI
A549 [10] = test: Antitumor activity against human A549 cells xenografted in athymic nude mouse assessed as tumor growth inhibition at 50 mg/kg, iv administered every other day for 3 weeks measured every day during compound dosing relative to control; assay type: functional; conditions: 504 h, read-out: TGI
Danio rerio = species: Danio rerio; test: Hepatotoxicity in 48 hrs post fertilized transgenic liver zebrafish larvae model expressing LFABP:EGFP protein at 1 uM measured after 48 hrs post dose by fluorescence based assay; assay type: organism-based; conditions: in vivo

Chain of NAD(P)H dehydrogenase [quinone] 1 (Homo sapiens) (P15559 whole entry): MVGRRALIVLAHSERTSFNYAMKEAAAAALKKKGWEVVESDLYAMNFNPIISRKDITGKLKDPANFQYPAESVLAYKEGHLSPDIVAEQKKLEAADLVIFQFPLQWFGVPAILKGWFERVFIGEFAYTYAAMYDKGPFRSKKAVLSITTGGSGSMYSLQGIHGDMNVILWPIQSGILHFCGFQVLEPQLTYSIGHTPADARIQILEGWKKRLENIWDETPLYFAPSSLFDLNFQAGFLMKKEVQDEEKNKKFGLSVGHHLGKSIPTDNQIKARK

Activity [1] [µmol/min] | solubility [4] [µg/mL] | solubility [5] [µg/mL] | Structure (SMILES) | further results
1120 |  |  | COc1ccc(NCc2oc3c(c2C)C(=O)C(=O)c2cc(C)c(C)cc2-3)cc1 | 
1330 | 48.5 (≈ 133 µM) | 100 to 500 (≈ 275 to 1380 µM) | Cc1cc2c(cc1C)-c1oc(CNc3ccc(F)cc3)c(C)c1C(=O)C2=O | Activity [2]: 105 µmol NADPH/min/µmol enzyme; Selectivity ratio (Homo sapiens): 12.7; logD [3]: 4.03; Papp [6]: 42 ×10⁻⁶ cm/s
1040 |  |  | COc1ccccc1NCc1oc2c(c1C)C(=O)C(=O)c1cc(C)c(C)cc1-2 | 
898 |  |  | Cc1cc2c(cc1C)-c1oc(CNc3ccc(C#N)cc3)c(C)c1C(=O)C2=O | 
847 |  |  | Cc1cc2c(cc1C)-c1oc(CNc3ccc(Cl)c(Cl)c3)c(C)c1C(=O)C2=O | 
1060 |  |  | Cc1cc2c(cc1C)-c1oc(CNc3ccc(Cl)cc3Cl)c(C)c1C(=O)C2=O | 
1320 | 33.1 (≈ 87.7 µM) | < 100 | Cc1cc2c(cc1C)-c1oc(CNc3ccc(F)cc3C)c(C)c1C(=O)C2=O | Activity [2]: 127 µmol NADPH/min/µmol enzyme; Selectivity ratio (Homo sapiens): 10.3; logD [3]: 3.31
1150 |  |  | Cc1cc2c(cc1C)-c1oc(CNc3ccc(Br)cc3)c(C)c1C(=O)C2=O | 
1340 | 51.2 (≈ 141 µM) | 100 to 500 (≈ 275 to 1380 µM) | Cc1cc2c(cc1C)-c1oc(CNc3cccc(F)c3)c(C)c1C(=O)C2=O | Activity [2]: 112 µmol NADPH/min/µmol enzyme; Selectivity ratio (Homo sapiens): 12; logD [3]: 4.21; Papp [6]: 66.2 ×10⁻⁶ cm/s
1180 |  |  | Cc1cc2c(cc1C)-c1oc(CNc3ccc(F)cc3F)c(C)c1C(=O)C2=O | 
955 |  |  | COc1cccc(NCc2oc3c(c2C)C(=O)C(=O)c2cc(C)c(C)cc2-3)c1 | 

Further lines, the compound ahead of its results:

Structure (SMILES) | Activity [1] [µmol/min] | solubility [4] [µg/mL] | solubility [5] [µg/mL] | further results
Cc1cc2c(cc1C)-c1oc(C(=O)N3CCN(c4ccc(F)cc4)CC3)c(C)c1C(=O)C2=O | 1190 |  |  | 
Cc1cc2c(cc1C)-c1oc(C(=O)NCc3ccc(F)cc3)c(C)c1C(=O)C2=O | 1290 |  |  | 
Cc1cc2c(cc1C)-c1oc(CNCc3ccc(F)cc3)c(C)c1C(=O)C2=O | 1200 |  |  | 
CC(=O)O[C@H]1C(=O)[C@@]2(C)[C@H]([C@H](OC(=O)c3ccccc3)[C@]3(O)C[C@H](OC(=O)[C@H](O)[C@@H](NC(=O)c4ccccc4)c4ccccc4)C(C)=C1C3(C)C)[C@]1(OC(C)=O)CO[C@@H]1C[C@@H]2O [PACLITAXEL] |  |  |  | IC50 (A549/TR): 28 µM
Cc1cc2c(cc1C)-c1oc(CNc3ccc(F)c(Cl)c3)c(C)c1C(=O)C2=O | 940 |  |  | 
Cc1cc2c(cc1C)-c1oc(CN3CCN(c4ccccc4)CC3)c(C)c1C(=O)C2=O | 1050 |  |  | 
Cc1cc2c(cc1C)-c1occ(C)c1C(=O)C2=O |  | 28.6 (≈ 119 µM) | < 100 | Activity [2]: 142 µmol NADPH/min/µmol enzyme; logD [3]: 3.65; Papp [6]: 43.1 ×10⁻⁶ cm/s
Cc1cc2c(cc1C)-c1oc(CN3CCN(Cc4ccccc4)CC3)c(C)c1C(=O)C2=O | 1190 |  |  | 
Cc1cc2c(cc1C)-c1oc(C(=O)Nc3ccc(F)cc3)c(C)c1C(=O)C2=O | 1260 |  |  | 
Cc1cc2c(cc1C)-c1oc(C(=O)N3CCN(Cc4ccccc4)CC3)c(C)c1C(=O)C2=O | 1360 | 41.1 (≈ 92.9 µM) | 100 to 500 (≈ 226 to 1130 µM) | Activity [2]: 90 µmol NADPH/min/µmol enzyme; Selectivity ratio (Homo sapiens): 15.1; logD [3]: 4.82; Papp [6]: 11.9 ×10⁻⁶ cm/s
Cc1cc2c(cc1C)-c1oc(CN3CCN(c4ccc(F)cc4)CC3)c(C)c1C(=O)C2=O | 1460 | 151 (≈ 349 µM) | 500 to 1000 (≈ 1160 to 2310 µM) | Activity [2]: 159 µmol NADPH/min/µmol enzyme; Selectivity ratio (Homo sapiens): 9.19; logD [3]: 2.89; Papp [6]: 28.3 ×10⁻⁶ cm/s
CC1(C)CCC2=C(O1)c1ccccc1C(=O)C2=O [LAPACHONE] |  | 38 (≈ 157 µM) | < 100 | Papp [6]: 46.4 ×10⁻⁶ cm/s; Activity [7]: Active; Activity (L02): Toxic; Activity [8]: 15.9 nmol/mg; inhibition in vivo at 30 mg/kg (A549 [9]): 78.5%; inhibition in vivo at 50 mg/kg (A549 [10]): 84.9%; Activity (Danio rerio): Toxic
